Test results reported in patent US11553713B2, “Polyalcohol, carbohydrate, nucleobase and nucleotide compositions and uses thereof” (Chunbo Zhang, priority 2015, dated 2023).

Columns and labels:
female mosquitoes [1] = experiment: Efficacy by ingestion: feeder test in 6-liter cage, death rate of female mosquitoes; assay type: in vivo; conditions: for Death Rate / Death Rate within 24 hrs after treatment removed / Death Rate within 2 days after treatment removed / Death Rate within 3 days after treatment removed / Death Rate within 4 days after treatment removed: 10% sugar in CPDA, 24 hrs; for timing of death after ingestion (“delayed” death): after treatment was removed
Source text: Female mosquitoes were used in the experiment because only female mosquitoes bite humans and animals and transmit infectious diseases.
(2R)-3-fluoropropane-1,2-diol (rFOH) was used as the active agent at various concentrations. A sugar feeder containing 10% sucrose, which is a regular mosquito feeder in a laboratory setting, was used as a regular food source in free choice studies. A free choice study allows the pests to select which feeder to feed on when given two or more choices.
In a two-choice test, a 6-liter cage was supplied with two feeders, one contained 5% rFOH and 10% sucrose in CPDA and the other one contained 10% sucrose without any rFOH or CPDA. 100 female mosquitoes were placed in the cage having the two feeders such that the mosquitoes chose freely which feeder to feed on. After 24 hours of feeding in the cage, over 80% of mosquitoes were dead. […] When the concentration of rFOH was reduced to 1% or 0.15%, its effectiveness remained the same. Over 80% of mosquitoes were dead due to 24 hours of feeding with rFOH.
Subsequent to 24 hours of feeding, rFOH feeder was removed from the cage and a regular sugar feeder (10% sucrose) was provided. In the next day, 5-20% of residual death was observed, indicating a delayed death after rFOH ingestion.
In a further study, mosquitoes were fasted for 24 hours before feeding to ensure that all mosquitoes have the capacity for food intake. […] Thus, fasting is not a cause of mosquito death during a series of experiments.
The experiments determined that 0.1% rFOH was sufficient to achieve 50% death (LD50) under various conditions. In one study, 100 mosquitoes were caged in a 6-liter space and fasted for 24 hours. Subsequently, the mosquitoes were fed on two feeders giving their free choices for 0.1% rFOH containing 10% sucrose in CPDA or 10% sucrose without rFOH for 24 hours, resulting in 43% death. In a parallel study in which the cage was supplied with a single feeder, the 0.1% rFOH feeder containing 10% sucrose in CPDA, which caused 44% of death after 24 hours of feeding.
Similar experiments as disclosed above were performed with various rFOH concentrations under various conditions. The rFOH composition contained 10% sugar in CPDA solution unless specified otherwise.
Similar experiments as disclosed above were performed on female mosquitoes to determine LD50. The rFOH composition contained 10% sugar in CPDA solution unless specified otherwise.
(§1) Similar experiments as disclosed above were performed on female mosquitoes using different active agents at various concentrations. The active agent composition contained 10% sugar in CPDA solution unless specified otherwise.

Stability of FOH = assay type: physicochemical; conditions: normal temperature and pressure
Description: In some embodiments, 3-fluoropropane-1,2-diol (FOH) (R^1═R^2=R^3═R^5═H, n=2, m=0 in formula I) is exemplified as an active agent of the compositions disclosed herein. FOH has two enantiomeric isomers (2r)-3-fluoropropane-1,2-diol (rFOH) and (2s)-3-fluoropropane-1,2-diol (sFOH). FOH is a nonvolatile chemical having a boiling point of 205.4° C. at 760 mm Hg, a flash point of 87.2° C., and a density of 1.192 g/cm^3. FOH is stable under normal temperature and pressure. The chemical synthesis of FOH is known in the art (Dummel et al., J. Med. Chem. 12(2): 347 (1969)). The chemical structure of FOH, representing both rFOH and sFOH, is shown below: […]

Escherishia coli DH5α = experiment: MIC test, broth microdilution (CLSI M07-A9); assay type: cell-based
Description: (§2) The effects of pesticides disclosed herein on various bacteria were tested by determining the minimal inhibitory concentration (MIC) of the pesticides. MIC of an antimicrobial agent is the lowest concentration of the antimicrobial agent that inhibits a given bacterial isolate from multiplying and producing visible growth in the test system. The MIC of rFOH and BrOH was determined in the laboratory by incubating a known quantity of bacteria with a series of dilutions of the active agents and comparing their effects with those of known antimicrobial agents. Table 6 lists the representative bacterial strains and the conditions in MIC tests. Antimicrobial tests of the active agents were conducted according to “Methods for Dilution Antimicrobial Susceptibility Tests for Bacteria That Grow Aerobically” by Clinical and Laboratory Standards Institute (CLSI) (CLSI document M07-A9, 2012). In the study, methicillin/oxacillin resistant Staphylococcus aureus (MRSA) strain (ATCC 43300) was routinely under screening with 4 ug/ml oxacillin. Escherishia coli DH5α was a nonpathogenic laboratory strain. […] When the DH5α/plasmid (DH5P) colony was used, the colony was maintained in the presence of 100 ug/ml ampicillin.
(§3) MIC tests were conducted in 96 well microtiter plates with a total volume of 150 ul broth in each well. The directly colony suspension method (CLSI document M07-A9, 2012) was applied to obtain MIC for antimicrobial tests of the active agents. After colonies were freshly incubated overnight, colonies were suspended in sterile water to adjust the inoculum to a turbidity equivalent to a 0.5 McFarland standard (corresponding to approximately 1.5×10^8 CFU/ml). Within 10 minutes, the inoculum was adjusted by dilution in broth to reach a final concentration of 5×10^5 CFU/ml. A series of various concentrations of the active agents were applied to determine the MIC. In the same microtiter plate, an internal standard formulated by a concentration series of standard antibiotic agent was incubated in parallels to allow for back-to-back comparison.

[2] = system: Escherishia coli DH5α transformed with a pcDNA3 plasmid (DH5P); experiment: MIC test, broth microdilution (CLSI M07-A9); assay type: cell-based
Description: as §2, §3

[3] = system: Methicillin/oxacillin resistant Staphylococcus aureus (MRSA) strain (ATCC 43300); experiment: MIC test, broth microdilution (CLSI M07-A9); assay type: cell-based
Description: as §2, §3

female mosquitoes [4] = experiment: Membrane feeding test, death rate of female mosquitoes; assay type: in vivo; conditions: active agent at 1%; 18 hrs fasting; membrane feeding for 1 hour and 45 minutes before sugar feeder provided
Description: as §1
This is because membrane feeding provides only a small space accessible to a limited number of mosquitoes for feeding.

[5] = active agent at 0.5%, 24 hrs fasting, sugar feeder not provided
[6] = active agent at 1%, 24 hrs fasting, sugar feeder not provided
[7] = active agent at 0.5%, not fasted, sugar feeder provided for free choice
[8] = internal standard in the same microtiter plate
[9] = active agent at 1.5%, 24 hrs fasting, sugar feeder not provided
[10] = Tryptic soy broth, 37° C. for 24 hrs, listed as BrOH

SMILES: OCC(O)CCl (stereo not drawn) [3-Chloro-1,2-propanediol]
- Death Rate (female mosquitoes [1]; active agent at 0.15%, 24 hrs fasting, sugar feeder not provided): >85%

SMILES: NC(CO)CO [2-Amino-1,3-propanediol]
- Death Rate (female mosquitoes [1]; [5]): 16%

SMILES: Nc1nc(F)nc2nc[nH]c12 [2-Fluoroadenine]
- Death Rate (female mosquitoes [1]; active agent at 0.2%, 24 hrs fasting, sugar feeder provided for free choice): 30%

SMILES: CC(C)(CO)CO [2,2-Dimethyl-1,3-propanediol]
- Death Rate (female mosquitoes [1]; active agent at 0.5%, 24 hrs fasting, sugar feeder provided for free choice): 10%

SMILES: OCC(O)CF (stereo not drawn) [FOH, 3-fluoropropane-1,2-diol]
- stability (Stability of FOH): stable

SMILES: OCC1(CO)CCC1 [1,1-Bis(hydroxymethyl)cyclobutane]
- Death Rate (female mosquitoes [1]; [5]): 50%

SMILES: Nc1nc(F)nc2c1ncn2[C@@H]1O[C@H](CO)[C@@H](O)[C@H]1O [2-Fluoroadenosine]
- Death Rate within 24 hrs after treatment removed (female mosquitoes [1]; [6]): 22% within
- Death Rate within 2 days after treatment removed (female mosquitoes [1]; [6]): removed, 47%
- Death Rate within 3 days after treatment removed (female mosquitoes [1]; [6]): removed, 64%
- Death Rate within 4 days after treatment removed (female mosquitoes [1]; [6]): 75-80% within
- Death Rate within 4 days after treatment removed (female mosquitoes [1]; active agent at 1%, 24 hrs fasting, sugar feeder not provided, listed as 2-fluoroadenosine): 75-80%
- timing of death after ingestion (“delayed” death) (female mosquitoes [1]): delayed

SMILES: Nc1ccn([C@@H]2O[C@H](CO)[C@@H](O)C2(F)F)c(=O)n1 [Gemcitabine, reference compound]
- Death Rate within 24 hrs after treatment removed (female mosquitoes [1]; [7]): 3% within
- Death Rate within 2 days after treatment removed (female mosquitoes [1]; [7]): removed, 36%
- Death Rate within 3 days after treatment removed (female mosquitoes [1]; [7]): 66%

SMILES: CC1(C)S[C@@H]2[C@H](NC(=O)[C@H](N)c3ccccc3)C(=O)N2[C@H]1C(=O)O [ampicillin, reference compound]
- Comparable Effectiveness (standard antibiotic concentration as effective as 0.4% rFOH) (Escherishia coli DH5α; [8]): 19 µg/mL
- Comparable Effectiveness (standard antibiotic concentration as effective as 0.4% rFOH) [2, 8]: 240 µg/mL

SMILES: C[C@@H](Cl)C(=O)O [(R)-(+)-2-Chloropropionic acid]
- Death Rate (female mosquitoes [1]; [5]): 10%

SMILES: OCC(CO)c1ccccc1 [2-Penyl-1,3-propanediol]
- Death Rate (female mosquitoes [1]; [9]): 61%

SMILES: CO[C@@]1(NC(=O)Cc2cccs2)C(=O)N2C(C(=O)O)=C(COC(N)=O)CS[C@@H]21 [cefoxitin, reference compound]
- Comparable Effectiveness (standard antibiotic concentration as effective as 0.4% rFOH) [3, 8]: 48 µg/mL

SMILES: OC[C@H]1O[C@@H](O)[C@H](O)[C@@H](O)[C@@H]1F [4-Deoxy-4-fluoro-β-D-glucopyranose]
- Death Rate in 2 hours (female mosquitoes [4]): 10% in 2
- Death Rate in 24 hours (female mosquitoes [4]): hours, 17%
- Death Rate in the first hour (female mosquitoes [4]): 2% in the

SMILES: OC1CCCCC1O (stereo not drawn) [1,2-cyclohexanediol]
- Death Rate (female mosquitoes [1]; [5]): 22%

SMILES: OCC(O)CBr (stereo not drawn) [3-Bromopropane-1,2-diol]
- MIC (Escherishia coli DH5α; [10]): 0.025%
- MIC [2, 10]: 0.2%
- MIC ([3]; Mueller Hinton broth with 2% NaCl and 50 ug/ml CaCl2, 35° C. for 24 hrs, listed as BrOH): 2.5%
- Death Rate (female mosquitoes [1]; active agent at 0.15%, 24 hrs fasting, sugar feeder provided for free choice, death found for a week after treatment was removed): 30-52%
- Death Rate (female mosquitoes [1]; active agent at 0.2%, 24 hrs fasting, sugar feeder not provided, death found for a week after treatment was removed): >85% death
- timing of death after ingestion (“delayed” death) (female mosquitoes [1]): Delayed

SMILES: OC[C@H](O)CF [sFOH, (2s)-3-fluoropropane-1,2-diol]
- Death Rate (female mosquitoes [1]; active agent at 0.3%, 24 hrs fasting, sugar feeder not provided, death found for a week after treatment was removed): 42-68%
- Death Rate (female mosquitoes [1]; active agent at 0.5%, 24 hrs fasting, sugar feeder not provided, death found for a week after treatment was removed): >85% death
- timing of death after ingestion (“delayed” death) (female mosquitoes [1]): Delayed

SMILES: CC(CO)CO [2-Methyl-1,3-propanediol]
- Death Rate (female mosquitoes [1]; [5]): 12%

SMILES: O=c1[nH]c(=O)n([C@H]2C[C@H](O)[C@@H](CO)O2)cc1F [2′-Deoxy-5-fluorouridine]
- Death Rate (female mosquitoes [1]; active agent at 2%, 24 hrs fasting, sugar feeder not provided): 24%

SMILES: CC(C)(O)C(C)(C)O [2,3-Dimethylbutane-2,3-diol]
- Death Rate (female mosquitoes [1]; [9]): 53%
